Literature values as cited in US6716451B1 (Soft Gel Technologies, Inc., priority 1999, dated 2004).
Read-outs that look alike come from different tables or passages of the source.

What was measured:
[1] = subjects taking at least 100 IU daily; more than 12,000 adults
human breast cancer cell = settings: in vitro

Molecule	adverse effects (50 mg/day for 1 to 8.2 years, cardiovascular clinical studies)	adverse effects (oral 50 to 400 IU per day, double-blind clinical studies)	decrease in heart disease risk [1] [%]	inhibition of growth of human breast cancer cells compared with Tamoxifen (human breast cancer cell)
Vitamin E	without any adverse effects	did not show any adverse effects	40	–
CC(C)=CCC/C(C)=C/CC/C(C)=C/CC[C@]1(C)CCc2cc(O)c(C)c(C)c2O1 [γ-tocotrienol]	–	–	–	more effectively than the popular breast cancer drug, Tamoxifen
